Source: patent US20040197865A1, “Gene expression systems and recombinant cell lines” (3M Innovative Properties Company, priority 2002, published 2004)

The compounds below were run against T1, human TLR6 (Homo sapiens, UniProt Q9Y2C9) (assay: Luciferase induction off the IFN-α1 promoter in pIFN-α1-luc/pCI-TLR6 co-transfected Namalwa cells). Details: IRM compound 10 μM, 18 hours, fold increase compared to DMSO negative control, representative experiment.
T1 construct: expressed in transfected cells; host or cells: Namalwa cells (ATCC CRL-1432), co-transfected with pIFN-α1-luc and pCI-TLR6, G418-selected
T1 sequence (Q9Y2C9 32-796): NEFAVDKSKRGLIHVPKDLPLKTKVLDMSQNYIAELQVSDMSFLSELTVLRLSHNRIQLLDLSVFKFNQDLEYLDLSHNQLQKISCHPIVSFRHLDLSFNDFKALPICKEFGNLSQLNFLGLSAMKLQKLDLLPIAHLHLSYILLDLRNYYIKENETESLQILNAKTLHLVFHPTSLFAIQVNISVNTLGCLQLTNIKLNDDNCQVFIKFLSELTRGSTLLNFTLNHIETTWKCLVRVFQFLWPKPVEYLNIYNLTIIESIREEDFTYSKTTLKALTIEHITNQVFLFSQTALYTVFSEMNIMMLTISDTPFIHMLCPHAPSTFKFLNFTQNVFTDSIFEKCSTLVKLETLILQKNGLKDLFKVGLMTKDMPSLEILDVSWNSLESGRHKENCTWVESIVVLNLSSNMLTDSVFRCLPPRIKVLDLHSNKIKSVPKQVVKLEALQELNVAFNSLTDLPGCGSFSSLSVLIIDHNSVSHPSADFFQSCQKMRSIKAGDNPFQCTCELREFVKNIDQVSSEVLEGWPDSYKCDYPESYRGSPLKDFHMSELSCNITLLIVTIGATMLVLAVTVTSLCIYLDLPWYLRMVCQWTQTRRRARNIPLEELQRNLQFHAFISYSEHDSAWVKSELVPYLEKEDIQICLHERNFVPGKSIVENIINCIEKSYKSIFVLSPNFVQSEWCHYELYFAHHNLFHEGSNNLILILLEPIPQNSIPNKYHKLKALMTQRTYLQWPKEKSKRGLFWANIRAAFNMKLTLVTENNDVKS
T1 sequence (O60603 19-784 partner limits assumed): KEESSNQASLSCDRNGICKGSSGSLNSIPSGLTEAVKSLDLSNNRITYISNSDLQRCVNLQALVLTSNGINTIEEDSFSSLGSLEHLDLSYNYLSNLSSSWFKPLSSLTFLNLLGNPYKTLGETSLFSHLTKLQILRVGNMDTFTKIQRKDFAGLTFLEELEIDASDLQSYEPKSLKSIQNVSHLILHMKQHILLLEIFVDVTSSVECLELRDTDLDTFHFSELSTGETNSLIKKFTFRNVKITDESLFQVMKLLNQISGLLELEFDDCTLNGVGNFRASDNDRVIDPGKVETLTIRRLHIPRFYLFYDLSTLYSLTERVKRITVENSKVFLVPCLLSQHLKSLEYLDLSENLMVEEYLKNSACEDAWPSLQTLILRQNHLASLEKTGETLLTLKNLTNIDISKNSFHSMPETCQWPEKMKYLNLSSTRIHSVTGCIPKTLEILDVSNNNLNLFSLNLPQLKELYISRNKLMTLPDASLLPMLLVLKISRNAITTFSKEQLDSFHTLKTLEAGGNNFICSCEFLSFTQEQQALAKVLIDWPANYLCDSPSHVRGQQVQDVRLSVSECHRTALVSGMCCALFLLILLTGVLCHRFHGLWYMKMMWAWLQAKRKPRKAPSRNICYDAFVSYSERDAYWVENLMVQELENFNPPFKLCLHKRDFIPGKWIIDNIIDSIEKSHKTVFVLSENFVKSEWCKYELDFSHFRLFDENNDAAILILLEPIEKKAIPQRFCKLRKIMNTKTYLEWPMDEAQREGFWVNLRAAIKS
Assay type: cell-based
From the text: The vector pIFN-α1-luc was constructed by inserting BglII sites at both ends of the human IFN-α1 promoter (SEQ ID NO:21). The BglII sites were inserted into the IFN-α1 promoter and the sequence was amplified using the primer pair of SEQ ID NO:22 and SEQ ID NO:23. The amplified IFN-α1 promoter was cloned into the pGL3-Enhancing vector (Promega Corp., Madison, Wis.) at its BglII site.
The vector pCI-TLR6 was constructed by inserting SEQ ID NO:11 (GenBank Accession No. NM 006068), which includes the human TLR6 coding sequence, into the pCI-neo mammalian expression vector (Promega Corp.) at the vector's NheI and MluI restriction sites.
Burkitt's Lymphoma lymphoblastoid Namalwa cells (ATCC Accession No. CRL-1432) were grown by incubation in culture medium overnight. Cells were harvested by centrifugation in a tabletop centrifuge (1200 RPM for 5 minutes), and then resuspended in phosphate buffered sucrose to a concentration of 1.3×10^7 cells per milliliter.
For each transfection, a 750 μL aliquot of the cell suspension was placed in an electroporation cuvette with 4 mm gaps. 10 μg of the pIFN-α1-luc vector and 10 μg of the pCI-TLR6 vector were added to the electroporation cuvette. The cell and vector mixtures were incubated at room temperature for 5 minutes. The cells were electroporated using a BioRad Gene Pulser (BioRad Laboratories, Hercules, Calif.) set to at 500 μF capacitance and […], then incubated at room temperature for 5 minutes.
The electroporated cells were suspended in 10 mLs of culture medium and incubated overnight. Dead cells and debris were removed after 24 hours using a MACS Dead Cell Removal kit (Miltenyi Biotec, Auburn, Calif.). Cells were resuspended in 10 mLs of culture medium and incubated for an additional 24 hours.
Transfected cells were selected by adding G418 (Promega Corp., Madison, Wis.) to a final concentration of 1 mg/mL and incubating the cells for seven days.
The selected transfected cells were counted and resuspended to a concentration of 1×10^6 cell per mL in culture medium. 100 μl aliquots of cells were placed in the wells of a white-walled, white-bottomed 96-well plate (Corning, Inc. Corning, N.Y.). 1.0 μL of an IRM compound from Table 1 (prepared at 1 mM in 100% DMSO) was added to some cell aliquots so that the final concentration of IRM compound was 10 μM. As a positive control, some cell aliquots were incubated with Sendai virus instead of IRM compound. As a negative control, some cell aliquots were incubated with DMSO without IRM compound. In all cases, the cells were incubated for 18 hours.
The plates were equilibrated to room temperature before 1 volume of reconstituted LucLight Plus (Packard Instruments, Meriden, Conn.) was added to each aliquot of cells. Each well of the plate was read on an LJL Analyst (LJL Biosystems, Inc., Sunnyvale, Calif.) set with a 5 minute dark adapt. The data are expressed as the fold increase in luciferase induction off of the IFN-α1 promoter in cell aliquots incubated with the indicated stimulant compared to the negative control in which the cell aliquots were incubated with only DMSO.
For `Nc1nc2ccccc2c2c1ncn2CCOCCCc1cccnc1` [IRM4, 1-{2-[3-(3-pyridyl)propoxy]ethyl}-1H-imidazo[4,5-c]quinolin-4-amine], the “Fold Increase in Luciferase Induction” value was 4.0.
With `CCOCc1nc2c(N)nc3c(c2n1CC(C)(C)O)CCCC3` [IRM1, 4-amino-2-ethoxymethyl-α,α-dimethyl-6,7,8,9-tetrahydro-1H-imidazo[4,5-c]quinoline-1-ethanol] the “Fold Increase in Luciferase Induction” value was 3.6.
In the case of `CCCCc1nc2c(N)nc3c(c2n1CC(C)C)NCCC3` [IRM6, 2-butyl-6,7,8,9-tetrahydro-1-(2-methylpropyl)-1H-imidazo[4,5-c][1,5]naphthyridin-4-amine], the “Fold Increase in Luciferase Induction” value is reported as 2.9.
`Cc1nc2c(N)nc3ccccc3c2n1CC(C)(C)O` [IRM2, 4-amino-α,α,2-trimethyl-1H-imidazo[4,5-c]quinoline-1-ethanol] was tested, and the “Fold Increase in Luciferase Induction” value was 2.7.
For `CCCCc1nc2c(N)nc3cccnc3c2n1CC(C)C` [IRM5, 2-butyl-1-(2-methylpropyl)-1H-imidazo[4,5-c][1,5]naphthyridin-4-amine], the “Fold Increase in Luciferase Induction” value was 3.2.
`CCCCc1nc2c(N)nc3ccccc3c2n1CCCCNS(C)(=O)=O` [IRM3, N-[4-(4-amino-2-butyl-1H-imidazo[4,5-c]quinolin-1-yl)butyl]methanesulfonamide] was tested, and the “Fold Increase in Luciferase Induction” value was 2.6.
In the case of `CCc1nc2c(N)nc3ccccc3c2n1CCCCCS(C)(=O)=O` [IRM8, 2-ethyl-1-[5-(methylsulfonyl)pentyl]-1H-imidazo[4,5-c]quinolin-4-amine], the “Fold Increase in Luciferase Induction” value is reported as 2.3.
`COCCc1nc2c(N)nc3ccccc3c2n1CCCCNC(=O)c1ccc(-n2cccc2)nc1` [IRM7, N^3-{4-[4-amino-2-(2-methoxyethyl)-1H-imidazo[4,5-c]quinolin-1-yl]butyl}-6-(1H-1-pyrrolyl)nicotinamide] was tested, and the “Fold Increase in Luciferase Induction” value was 3.2.
